# Laboratory results reported in ChEMBL document CHEMBL1155313, “Inhibitory effect of chalcones and their derivatives from Glycyrrhiza inflata on protein tyrosine phosphatase 1B” (Bioorg Med Chem Lett, 2009).
# Biological target: T1, Tyrosine-protein phosphatase non-receptor type 1 (Homo sapiens, UniProt P18031)
# T1 sequence (P18031 whole entry): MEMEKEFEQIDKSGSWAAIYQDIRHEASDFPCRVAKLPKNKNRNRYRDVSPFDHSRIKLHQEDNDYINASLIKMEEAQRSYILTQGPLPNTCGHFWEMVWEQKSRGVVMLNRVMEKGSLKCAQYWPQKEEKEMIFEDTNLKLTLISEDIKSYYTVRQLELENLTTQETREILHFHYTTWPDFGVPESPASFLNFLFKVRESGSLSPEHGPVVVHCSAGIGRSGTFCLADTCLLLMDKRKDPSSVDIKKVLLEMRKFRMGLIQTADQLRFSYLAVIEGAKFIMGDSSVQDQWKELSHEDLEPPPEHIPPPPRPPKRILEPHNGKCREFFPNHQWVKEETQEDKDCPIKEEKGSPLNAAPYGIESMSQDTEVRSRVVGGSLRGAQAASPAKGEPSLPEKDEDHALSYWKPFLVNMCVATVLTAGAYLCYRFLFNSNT
# Assay: Inhibition of recombinant human PTP1B assessed as hydrolysis of p-nitrophenyl phosphate after 30 mins
row,Structure (SMILES),IC50
1,COc1c(/C=C/C(=O)c2ccc(O)cc2)ccc(O)c1CC=C(C)C,30.9 µM
2,C=CC(C)(C)c1cc(/C=C/C(=O)c2ccc(OC)cc2)c(OC)cc1O,11.7 µM
3,C=CC(C)(C)c1cc(/C=C/C(=O)c2ccc(OC)cc2)c(OC)cc1OC(C)=O,19.4 µM
4,C=CC(C)(C)c1cc(/C=C/C(=O)c2ccc(O)cc2)c(OC)cc1OC(C)=O,17.3 µM
5,C=CC(C)(C)c1cc(/C=C/C(=O)c2ccc(OC(C)=O)cc2)c(OC)cc1OC,29.2 µM
6,C=CC(C)(C)c1cc(/C=C/C(=O)c2ccc(O)cc2)c(OC)cc1OC,18.3 µM
7,C=CC(C)(C)c1cc(/C=C/C(=O)c2ccc(OC(C)=O)cc2)c(OC)cc1O,19.2 µM
8,C=C(C)C(C)c1cc(/C=C/C(=O)c2ccc(O)cc2)c(OC)cc1O (centres undefined),20.7 µM
9,C=CC(C)(C)c1cc(/C=C/C(=O)c2ccc(OC)cc2)c(OC)cc1OC,19.8 µM
10,C=CC(C)(C)c1cc(/C=C/C(=O)c2ccc(OC(C)=O)cc2)c(OC)cc1OC(C)=O,> 50 µM
11,COc1cc(O)ccc1/C=C/C(=O)c1ccc(O)cc1 [ECHINATIN],> 50 µM
12,O=C(/C=C/c1ccc(O)cc1)c1ccc(O)cc1O [ISOLIQUIRITIGENIN],> 50 µM
13,C=CC(C)(C)c1cc(/C=C/C(=O)c2ccc(O)cc2)c(OC)cc1O [LICOAGROCHACONE A],19.1 µM
14,O=C1C[C@@H](c2ccc(O)cc2)Oc2cc(O)ccc21 [LIQUIRTIGENIN],> 50 µM
